Measurements from US20250327027A1, “METHODS TO GENERATE ENHANCED TUMOR INFILTRATING LYMPHOCYTES THROUGH MICROFLUIDIC DELIVERY” (STEMCELL TECHNOLOGIES CANADA INC., priority 2021, published 2025).
Several values for one entry are separate records, joined by “and”; a condition that tells them apart may be missing. Equal values may be shown once.

Assays:
[1] = system: melanoma and colorectal TILs; experiment: Post thaw analysis of cryopreserved squeeze processed TILs (effect of DMSO and HSA); assay type: cell-based; settings: DMSO 0% to 5%
Protocol: To evaluate whether freeze-thaw (including any effect from one or more of the cryopreservatives) has an effect on the squeeze processed TILs described herein, the following methods were used and the mRNA translation and phenotypic expression were assessed. Briefly, cryopreserved, squeezed melanoma and colorectal TILs were thawed and resuspended in CTS OpTmizer media. Post thaw cell recovery and viability were measured via NC-200. Cells were plated in tissue culture-treated plates and incubated for 4, 24 hours, and 8 days in a 37° C. incubator. The TILs were squeezed were assessed at each time point including t=0 (immediately post thaw) by flow cytometry for viability, surface levels of mbIL-2 and mbIL-12, and phenotypic markers such as CCR7, CD45RO, CD62L, CD127, KLRG-1, CD25, CD69, CD39, CD103, and CD25.
To assess the potential impact from DMSO, the following TILs were formulated in varying concentrations of DMSO (i.e., 0%, 1.25%, 2.5%, and 5%): (1) TILs squeeze processed with mRNA encoding membrane-bound LL-2 and mRNA encoding IL-12; and (2) non-squeeze processed TILs. Each of the formulated samples also contained 5% human serum albumin. Then, the TILs were cryopreserved and subsequently thawed as described above.

[2] = system: post-REP TILs; experiment: Engineered TIL resistance to intrinsic apoptosis induced by Venetoclax and S63548 (Apotracker, Bcl-2 FACS); assay type: cell-based, human
Protocol: Fresh post-REP TILs were collected from a 6-well G-Rex plate, centrifuged at 400 rcf at room temperature, and then washed and resuspended to 3-10M/mL in AIM V and transferred to a T25 flask and cultured at 37° C. for 24 hr. The cells were then prepared for squeeze-processing. The cells were counted, filtered through a 40-um cell strainer, washed, and the concentration was adjusted to 60M/mL by adding XVivo-15.
As shown above in Table 13, Group A was used as a control (i.e., not contacted with any payload and not squeeze processed). Group 13 was squeeze processed without any payload at room temperature using a microfluidic constriction (70 μm depth, 4.5 un width, and 10 μm length) at 30 psi. Groups C-H were squeeze processed at room temperature with the payloads shown above, i.e., Group C: mbIL-7 mRNA; Group D: Bcl-2 mRNA; Group E: mbIL-7 mRNA+Bcl-2 mRNA; Group F: mbIL-2 mRNA; Group G: mbIL-2 mRNA+Bcl-2 mRNA; Group H: mbIL-2 mRNA+mbIL-7 mRNA+Bcl-2 mRNA. Groups C-H were squeeze processed using the same conditions as in Group B (i.e., microfluidic constriction: 70 μm depth, 4.5 μm width, and 10 μm length; at 30 psi). […]
At 24 hours, 200 ul of cells were aspirated and centrifuged at 400 ref for 4 minutes at room temperature. […] The cells were then analyzed using an Attune Flow cytometer.

[3] = system: TILs; experiment: Effect of cytokine (IL-2 or IL-15) during TIL expansion (colorectal tumor); assay type: cell-based; settings: for Cell Count on Day 13 / Viability on Day 13: replicate wells
Protocol: Briefly, freshly resected colorectal tumor was rinsed in 1× Hank's Balanced Salt Solution (HBSS) with 10 µg/mL gentamicin and dissected into 8-27 mm^3 fragments using a forceps and scalpel. […] The G-Rex6M plate was then placed in a 37° C., 5% CO2 incubator for 3 days.
On day 3, the G-Rex6M plate was removed from the incubator. […] The G-Rex6M plate was returned to the 37° C., 5% CO2 incubator. On day 7 and 10, the G-Rex6M plate was removed from the incubator. […] The G-Rex6M plate was returned to the 37° C., 5% CO2 incubator.
[…] The number and viability of the TILs was assessed using a NucleoCounter NC-200.

[4] = system: post-REP TILs; experiment: Proliferative capacity of CD62L positive mbIL-2 and mbIL-12 engineered TILs; assay type: cell-based, human; settings: baseline CD62L positive and baseline CD62L negative fractions; day 4
Protocol: Fresh TILs from two donors on day 14 of REP were prepared for squeeze-processing Donors were processed in parallel throughout the experiment. TILs were centrifuged at 400 rcf for 4 minutes at room temperature. The supernatant was aspirated, and the cell populations were separately resuspended in 1 mL FACs buffer Cells were incubated at 4 C for 20 minutes with fluorescent anti-human antibody targeting CD62L. After incubation 150 μL of FACs isolation buffer were added to each sample and the samples were spun at 400 rcf for 4 minutes. Cells were then isolated using magnetic beads that select based on fluorescence as a proxy for CD62L expression. Cell fractions were incubated for 20 minutes at 37 C with 1 μM final cytoplasmic dyes; CD62L positive cells were incubated with dye that excites/emits at 405/450 nm and CD62L negative cells were incubated with dye that excites/emits at […]. The cells were then pooled, counted, filtered through a 40-um cell strainer, washed, and the concentration was adjusted to 50-80M/mL by adding XVivo-15.
As shown above in Table 18, Groups A and E were used as controls (i.e., not contacted with any payload and not squeeze processed). […]
At days 1, 4, and 6, 200 ul of cells were aspirated and centrifuged at 400 rcf for 4 minutes at room temperature. […] The cells were then analyzed using an Attune Flow cytometer.

[5] = system: post-REP TILs; experiment: mbIL-7 and Bcl-2 engineered TILs resistance to rhIL-7 sink effect (viability); assay type: cell-based, human; settings: day 5; 250 μg/mL mbIL-7 mRNA
Protocol: Three 50M cell vials were thawed and diluted with FACs buffer. […] Cells were transferred to a T75 flask and cultured at 37° C. To allow the cells to recover from thaw, cells were cultured for 72 hr.
Cells were prepared for squeeze-processing. Cells were collected, centrifuged at 400 rcf at room temperature, and then washed, resuspended to 3-10M/mL in AIM V media without rhIL-2 to remove rhIL-2-dependent support prior to squeeze processing, transferred to a T25 flask, and cultured at 37° C. for 24 hours. The cells were then counted, filtered through a 40-um cell strainer, washed, and the concentration was adjusted to 50M/mL by adding XVivo-15.
As shown above in Table 19, Group A was used as a control (i.e., not contacted with any payload and not squeeze processed). Group 13 was squeeze processed without any payload at room temperature using microfluidic constrictions (70 μm depth, 4.5 m width, and 10 μm length) at 30 psi. […]
At days 1 and 5, 200 ul of cells were aspirated and centrifuged at 400 rcf for 4 minutes at room temperature. […] The cells were then analyzed using an Attune Flow cytometer.

C[S+](C)[O-] [DMSO]
translation of the delivered mRNAs post-thaw [1]: did not have a negative impact on the translation of the delivered mRNAs | viability over time after thaw ([1]; squeeze-processed and unprocessed TILs): less DMSO also led to lower viability over time after thaw

CC1(C)CCC(CN2CCN(c3ccc(C(=O)NS(=O)(=O)c4ccc(NCC5CCOCC5)c([N+](=O)[O-])c4)c(Oc4cnc5[nH]ccc5c4)c3)CC2)=C(c2ccc(Cl)cc2)C1 [Venetoclax]
apoptosis as measured by Apotracker dye ([2]; 10, 100 or 1000 nM each of Venetoclax and S63548, 24 hours): induced apoptosis | concentration with strongest dynamic range of cell killing ([2]; Venetoclax and S63548 together): 10 nM

IL-15: recombinant IL-15 added to culture media
Cell Count on Day 13 ([3]; 500 U/mL IL-15): 1.92 × 10^7 and 8.32 × 10^6 | Viability on Day 13 ([3]; 500 U/mL IL-15): 96.5% and 93.3% | Cell Count on Day 13 ([3]; 3,000 U/mL IL-15): 3.34 × 10^6 and 2.96 × 10^7 | Viability on Day 13 ([3]; 3,000 U/mL IL-15): 94.8% and 91.3% | TIL expansion in culture ([3]; colorectal tumor fragments): promote TIL expansion

B1: rhIL-12: recombinant human IL-12 added to culture (protein, UniProt P29459 23-219; P29460 23-328, looked up)
Interleukin-12 subunit alpha: RNLPVATPDPGMFPCLHHSQNLLRAVSNMLQKARQTLEFYPCTSEEIDHEDITKDKTSTVEACLPLELTKNESCLNSRETSFITNGSCLASRKTSFMMALCLSSIYEDLKMYQVEFKTMNAKLLMDPKRQIFLDQNMLAVIDELMQALNFNSETVPQKSSLEEPDFYKTKIKLCILLHAFRIRAVTIDRVMSYLNAS
Interleukin-12 subunit beta: IWELKKDVYVVELDWYPDAPGEMVVLTCDTPEEDGITWTLDQSSEVLGSGKTLTIQVKEFGDAGQYTCHKGGEVLSHSLLLLHKKEDGIWSTDILKDQKEPKNKTFLRCEAKNYSGRFTCWWLTTISTDLTFSVKSSRGSSDPQGVTCGAATLSAERVRGDNKEYEYSVECQEDSACPAAEESLPIEVMVDAVHKLKYENYTSSFFIRDIIKPDPPKNLQLKPLKNSRQVEVSWEYPDTWSTPHSYFSLTFCVQVQGKSKREKKDRVFTDKTSATVICRKNASISVRAQDRYYSSSWSEWASVPCS
CD62L positive cells [4]: enriched

B2: rhIL-7: recombinant human (rh) IL-7 (protein, UniProt P13232 26-177, looked up)
Interleukin-7: DCDIEGKDGKQYESVLMVSIDQLLDSMKEIGSNCLNNEFNFFKRHICDANKEGMFLFRAARKLRQFLKMNSTGDFDLHLLKVSEGTTILLNCTGQVKGRKPAALGEAQPTKSLEENKSLKEQKKLNDLCFLKRLLQEIKTCWNKILMGTKEH
rhIL-7 support giving viability equal to mbIL-7-engineered TILs [5]: 10 ng/mL
